# Tests used:
# [1] = Blood alcohol content (BAC) of participants after alcoholic drinks; format: in vivo, human; conditions: half dose 30 minutes prior to drinking
# Description: Participants were also administered a verbal processing test.
# The differential in blood alcohol content between the participants receiving DHM and nicotinamide mononucleotide and emoxypine succinate and the participants in control group were substantial as show in Table 1.
# [2] = cited from earlier work
# [3] = test system: alcohol dehydrogenase (ADH) and acetaldehyde dehydrogenase (ALDH); conditions: cited from earlier work
smiles,measurement,setting,value
"O=C1c2c(O)cc(O)cc2O[C@H](c2cc(O)c(O)c(O)c2)[C@H]1O [DHM, (2R,3R)-3,5,7-trihydroxy-2-(3,4,5-trihydroxyphenyl)-2,3-dihydrochromen-4-one]",MEAN BAC LEVELS,"[1]; elapsed time 00 h 15 m, cumulative drinks 1",0.022%
same,MEAN BAC LEVELS,"[1]; elapsed time 00 h 45 m, cumulative drinks 2",0.051%
same,MEAN BAC LEVELS,"[1]; elapsed time 01 h 15 m, cumulative drinks 3",0.062%
same,MEAN BAC LEVELS,"[1]; elapsed time 01 h 45 m, cumulative drinks 4",0.087%
same,MEAN BAC LEVELS,"[1]; elapsed time 02 h 15 m, cumulative drinks 5",0.109%
same,MEAN BAC LEVELS,"[1]; elapsed time 02 h 45 m, cumulative drinks 6",0.131%
same,time required to reach peak plasma concentration,[2]; after oral administration at a dose of 20 mg/kg,2.67 h
same,bioavailability after oral administration,"[2]; rats, oral",4.02%
same,alcohol (EtOH) elimination,[3]; by increasing the activities of ADH and ALDH,promotes alcohol (EtOH) elimination
same,alcohol-induced liver injuries,[3]; in vivo,ameliorates alcohol-induced liver injuries
